The target in the assay is MAPK14 (human) (UniProt Q16539). Description: In vitro Inhibition of VEGF Stimulated MAPK Activation.

The structures appear in SMILES notation. Where only a bound is given, the exact number is not on record here.

MAPK14 (human), sequence (Q16539 whole entry, looked up): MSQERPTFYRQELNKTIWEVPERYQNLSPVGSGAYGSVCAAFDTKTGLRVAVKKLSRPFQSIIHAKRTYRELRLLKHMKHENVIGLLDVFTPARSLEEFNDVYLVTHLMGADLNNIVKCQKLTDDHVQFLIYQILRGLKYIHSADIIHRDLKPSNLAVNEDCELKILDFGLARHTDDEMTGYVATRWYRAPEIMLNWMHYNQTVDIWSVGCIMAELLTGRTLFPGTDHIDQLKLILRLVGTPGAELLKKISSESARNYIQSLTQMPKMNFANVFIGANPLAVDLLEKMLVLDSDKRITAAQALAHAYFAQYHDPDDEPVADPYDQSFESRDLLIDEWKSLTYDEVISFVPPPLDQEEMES

The IC50 is the point on the concentration scale where inhibition reaches its midpoint. A high value points to a need for much substance. For `COc1cc2nccc(Oc3ccc(NC(=O)Nc4ccccc4C)c(Cl)c3)c2cc1OC`, the concentration for half-maximal inhibition (IC50) was 0.6 nM. As for `CCCNC(=O)Nc1ccc(Oc2ccnc3cc(OC)c(OC)cc23)cc1[N+](=O)[O-]`, the 50% inhibitory concentration (IC50) was found to be 4 nM. In the case of `CCNC(=O)Nc1ccc(Oc2ccnc3cc(OC)c(OC)cc23)cc1F`, the IC50 turned out to be 11 nM.

`COc1cc2ncnc(Oc3ccc(NC(=O)Nc4ccc(F)cc4F)c(F)c3)c2cc1OC` registered an IC50 of 1.8 nM. In the case of `COCCOc1cc2nccc(Oc3ccc(NC(=O)Nc4ccccc4OC)c(Cl)c3)c2cc1OC`, the half-inhibitory concentration (IC50) amounted to 2.8 nM. Against the preceding compound, the IC50 is about 1.6-fold higher. The figure for `CCC(C)NC(=O)Nc1ccc(Oc2ncnc3cc(OC)c(OC)cc23)cc1Cl` (stereo not drawn) is 30 nM; for `C=CCNC(=O)Nc1ccc(Oc2ccnc3cc(OC)c(OC)cc23)cc1F` it is 2.1 nM; for `COc1cc2ncnc(Oc3ccc(NC(=O)NCc4ccc(F)cc4F)cc3)c2cc1OC` it is 6800 nM. The same measure for `COc1cc2nccc(Oc3ccc(NC(=O)Nc4ccc(Br)cn4)c(C)c3C)c2cc1OC`: 4.4 nM. The figure for `COc1cc2ncnc(Oc3ccc(NC(=O)Nc4ccc(F)cc4F)c(C)c3)c2cc1OC` is 5.3 nM; for `CCCNC(=O)Nc1ccc(Oc2ncnc3cc(OC)c(OC)cc23)c(C)c1` it is 518 nM; for `CCCCCNC(=O)Nc1ccc(Oc2ncnc3cc(OC)c(OC)cc23)cc1Cl` it is 4.1 nM.

As to `COc1cc2ncnc(Oc3ccc(NC(=O)Nc4ccc(F)cc4)c(C)c3)c2cc1OC`, the IC50 was 2.3 nM.

`COc1ccccc1NC(=O)Nc1ccc(Oc2ncnc3cc(OC)c(OC)cc23)cc1` had an IC50 of 1.2 nM. On to `COc1cc2nccc(Oc3ccc(NC(=O)Nc4ccc(Cl)cn4)c(C)c3C)c2cc1OC`, for which the half-inhibitory concentration (IC50) is 4 nM. The figure for `CCCNC(=O)Nc1ccc(Oc2ccnc3cc(OC)c(OC)cc23)cc1Cl` is 2.2 nM.

Regarding `CCCNC(=O)Nc1ccc(Oc2ncnc3cc(OC)c(OC)cc23)cc1`, the IC50 amounted to 42 nM. The figure for `CCC(C)NC(=O)Nc1ccc(Oc2ncnc3cc(OC)c(OC)cc23)cc1` (stereo not drawn) is 345 nM; for `COc1cc2ncnc(Oc3ccc(NC(=O)Nc4ccc(F)cc4)cc3C)c2cc1OC` it is 5.2 nM; for `COc1ccc(NC(=O)Nc2cc(C)c(Oc3ccnc4cc(OC)c(OC)cc34)cc2C)c(OC)n1` it is 2 nM. The same measure for `COc1cc2nccc(Oc3ccc(NC(=O)Nc4ccc(Br)cn4)c(Cl)c3)c2cc1OC`: 11 nM. `C#CCNC(=O)Nc1ccc(Oc2ncnc3cc(OC)c(OC)cc23)cc1F` had an IC50 of 46 nM. `CCCCCNC(=O)Nc1ccc(Oc2ncnc3cc(OC)c(OC)cc23)cc1`: the half-inhibitory concentration (IC50) turned out to be 21 nM. This IC50 lies about 2.2-fold lower than the previous one. As to `COCCOc1cc2nccc(Oc3ccc(NC(=O)Nc4ccc(F)cc4F)c(Cl)c3)c2cc1OC`, the IC50 is 0.5 nM. This IC50 lies about 42-fold lower than the previous one. The compound `COc1cc2ncnc(Oc3ccc(NC(=O)Nc4ccc(F)cc4F)cc3C)c2cc1OC` yielded a 50% inhibitory concentration (IC50) of 8.8 nM. Turning to `COc1cc2c(Oc3cc(C)c(NC(=O)Nc4ccc(F)cc4F)cc3C)ccnc2cc1OCCN1CCOCC1`, the IC50 is 4.4 nM.

`COc1cc2nccc(Oc3ccc(NC(=O)Nc4ccc(F)cc4F)c([N+](=O)[O-])c3)c2cc1OC`: the IC50 came to 0.5 nM. The same measure for `CCCNC(=O)Nc1ccc(Oc2ccnc3cc(OC)c(OC)cc23)cc1F`: 2.9 nM; for `CCCNC(=O)Nc1ccc(Oc2ncnc3cc(OC)c(OC)cc23)cc1[N+](=O)[O-]`: 10.2 nM. Regarding `COc1cc2nccc(Oc3ccc(NC(=O)Nc4cccc(C)n4)c(C)c3C)c2cc1OC`, the half-maximal inhibitory concentration (IC50) worked out at 3.7 nM. This IC50 is about 2.8-fold lower than that of the compound before. The same measure for `COc1cc2nccc(Oc3c(Cl)cc(NC(=O)Nc4ccc(F)cc4F)cc3Cl)c2cc1OC`: 4.3 nM; for `C=CCNC(=O)Nc1ccc(Oc2ncnc3cc(OC)c(OC)cc23)cc1Cl`: 13 nM; for `COc1cc2nccc(Oc3cc(C)c(NC(=O)Nc4ccc(F)cc4C)cc3C)c2cc1OC`: 12 nM. Compound `COc1cc2nccc(Oc3ccc(NC(=O)Nc4ccc(Cl)cc4C)c(C)c3C)c2cc1OC` displayed an IC50 of 7.3 nM. `COc1cc2nccc(Oc3ccc(NC(=O)Nc4cccc5ccccc45)c(Cl)c3)c2cc1OC`: the IC50 worked out at 5.4 nM.

Turning to `CCCCNC(=O)Nc1ccc(Oc2ccnc3cc(OC)c(OC)cc23)cc1F`, the IC50 amounted to 5.1 nM. The figure for `COCCOc1cc2nccc(Oc3cc(C)c(NC(=O)Nc4ccc(F)cc4F)cc3C)c2cc1OC` is 5.1 nM.

As for `CCCCNC(=O)Nc1ccc(Oc2ncnc3cc(OC)c(OC)cc23)c(C)c1`, the concentration for half-maximal inhibition (IC50) was found to be 450 nM. This IC50 lies about 88-fold higher than the previous one.

For the compound `COc1cc2nccc(Oc3ccc(NC(=O)NCC(C)C)c(F)c3)c2cc1OC`, the 50% inhibitory concentration (IC50) stood at 15 nM. The figure for `CCNC(=O)Nc1ccc(Oc2ncnc3cc(OC)c(OC)cc23)cc1Cl` is 8 nM; for `C=CCNC(=O)Nc1ccc(Oc2ncnc3cc(OC)c(OC)cc23)cc1` it is 45 nM. On to `COCCOc1cc2nccc(Oc3ccc(NC(=O)Nc4ccc(F)cc4F)c(C)c3C)c2cc1OC`, for which the 50% inhibitory concentration (IC50) was 5.1 nM.

`COc1cc2ncnc(Oc3ccc(NC(=O)NCc4ccc(F)cc4F)c(Cl)c3)c2cc1OC` came in with an IC50 of 3.8 nM. This IC50 and that of the compound before are within 1.5-fold of each other. `COc1cc2nccc(Oc3ccc(NC(=O)Nc4cccc(C)n4)c(Cl)c3)c2cc1OC` came in with a concentration for half-maximal inhibition (IC50) of 3.4 nM. `C#CCNC(=O)Nc1ccc(Oc2ncnc3cc(OC)c(OC)cc23)cc1` came in with a concentration for half-maximal inhibition (IC50) of 67 nM. The same measure for `COc1cc2c(Oc3ccc(NC(=O)Nc4ccc(F)cc4F)c(F)c3)ccnc2cc1OCCN1CCOCC1`: 0.5 nM; for `COc1cc2nccc(Oc3ccc(NC(=O)Nc4ccccn4)c(C)c3C)c2cc1OC`: 3.5 nM; for `CCC(C)NC(=O)Nc1ccc(Oc2ncnc3cc(OC)c(OC)cc23)cc1F` (stereo not drawn): 42 nM. The same measure for `COc1cc2ncnc(Oc3ccc(NC(=O)NCc4ccc(F)cc4F)c(F)c3)c2cc1OC`: 14 nM; for `COc1cc2ncnc(Oc3ccc(NC(=O)NCc4ccccn4)c(Cl)c3)c2cc1OC`: over 1000 nM. The same measure for `C#CCNC(=O)Nc1ccc(Oc2ccnc3cc(OC)c(OC)cc23)cc1F`: 5.2 nM.

On to `COc1ccccc1NC(=O)Nc1ccc(Oc2ncnc3cc(OC)c(OC)cc23)cc1F`, for which the half-inhibitory concentration (IC50) is under 1 nM. As for `COc1ccccc1NC(=O)Nc1cc(C)c(Oc2ccnc3cc(OC)c(OC)cc23)cc1C`, the half-maximal inhibitory concentration (IC50) is 3.8 nM. The same measure for `COc1cc2nccc(Oc3ccc(NC(=O)NCc4ccc(F)cc4F)c(F)c3)c2cc1OC`: 1.8 nM; for `COc1cc2nccc(Oc3ccc(NC(=O)Nc4ccc(F)cc4C)c(C)c3C)c2cc1OC`: 3.9 nM. The figure for `COc1ccccc1NC(=O)Nc1ccc(Oc2ncnc3cc(OC)c(OC)cc23)cc1Cl` is 0.6 nM; for `COc1ccccc1NC(=O)Nc1ccc(Oc2ncnc3cc(OC)c(OC)cc23)cc1C` it is under 1 nM.

`COc1cc2nccc(Oc3ccc(NC(=O)Nc4ccccc4C)c(C)c3C)c2cc1OC` registered an IC50 of 2.5 nM. The figure for `COc1cc2nccc(Oc3ccc(NC(=O)Nc4ccc(F)cc4F)c(C)c3C)c2cc1OC` is 0.6 nM; for `COc1ccc(NC(=O)Nc2ccc(Oc3ccnc4cc(OC)c(OC)cc34)c(C)c2C)cc1` it is 3.3 nM. The figure for `CCCCNC(=O)Nc1ccc(Oc2ncnc3cc(OC)c(OC)cc23)cc1C` is 53 nM. The same measure for `CCCCNC(=O)Nc1ccc(Oc2ncnc3cc(OC)c(OC)cc23)cc1Cl`: 71 nM. As for `COCCOc1cc2nccc(Oc3cc(C)c(NC(=O)Nc4ccccc4OC)cc3C)c2cc1OC`, the half-maximal inhibitory concentration (IC50) turned out to be 5.8 nM.

On to `CCC(C)NC(=O)Nc1ccc(Oc2ccnc3cc(OC)c(OC)cc23)cc1F` (stereo not drawn), for which the IC50 came to 7.8 nM. Consider `COc1cc2ncnc(Oc3ccc(NC(=O)Nc4ccc(Cl)cn4)c(Cl)c3)c2cc1OC`, for which the 50% inhibitory concentration (IC50) amounted to 58 nM.

The compound `COc1cc2ncnc(Oc3ccc(NC(=O)Nc4ccccc4C)cc3)c2cc1OC` registered an IC50 of 6 nM. The same measure for `COc1cc2nccc(Oc3cc(C)c(NC(=O)Nc4cccc(F)c4OC)cc3C)c2cc1OC`: 4.9 nM. Regarding `COc1cc2ncnc(Oc3ccc(NC(=O)Nc4ccc(F)cc4)cc3)c2cc1OC`, the concentration for half-maximal inhibition (IC50) is under 2 nM.

As to `COc1cc2ncnc(Oc3ccc(NC(=O)Nc4ccccc4C)c(F)c3)c2cc1OC`, the IC50 was 2.7 nM. The same measure for `COc1cc2nccc(Oc3ccc(NC(=O)Nc4ccc(C)cn4)c(Cl)c3)c2cc1OC`: 8.5 nM; for `COc1cc2nccc(Oc3ccc(NC(=O)Nc4cccc(F)c4OC)c(C)c3C)c2cc1OC`: 5.3 nM.

`CCCCNC(=O)Nc1ccc(Oc2ncnc3cc(OC)c(OC)cc23)cc1F` registered a half-inhibitory concentration (IC50) of 45 nM. In the case of `COc1ccccc1NC(=O)Nc1cc(C)c(Oc2ccnc3cc(OCCN4CCOCC4)c(OC)cc23)cc1C`, the IC50 is 5.9 nM.

Regarding `CCCNC(=O)Nc1ccc(Oc2ncnc3cc(OC)c(OC)cc23)cc1C`, the IC50 worked out at 150 nM. On to `COc1cc2nccc(Oc3ccc(NC(=O)Nc4ccc(F)cc4C)c(Cl)c3)c2cc1OC`, for which the 50% inhibitory concentration (IC50) was 0.7 nM. This IC50 lies about 210-fold lower than the previous one. The compound `COc1cc2nccc(Oc3cc(C)c(NC(=O)Nc4ccccc4C)cc3C)c2cc1OC` displayed a half-maximal inhibitory concentration (IC50) of 5.9 nM. This IC50 is about 8.4-fold higher than that of the compound before. As to `COc1cc2nccc(Oc3ccc(NC(=O)Nc4ccc(Cl)cn4)c(Cl)c3)c2cc1OC`, the half-inhibitory concentration (IC50) came to 2.9 nM. The figure for `COc1cc2nccc(Oc3ccc(NC(=O)Nc4ccc(C)cn4)c(C)c3C)c2cc1OC` is 4.2 nM; for `COc1ccc(NC(=O)Nc2ccc(Oc3ccnc4cc(OC)c(OC)cc34)cc2Cl)cc1` it is 0.4 nM. The same measure for `COc1ccccc1NC(=O)Nc1ccc(Oc2ccnc3cc(OC)c(OC)cc23)c(C)c1C`: 1.7 nM; for `COc1cc2nccc(Oc3cc(C)c(NC(=O)Nc4ccc(F)cc4F)cc3C)c2cc1OC`: 2.3 nM; for `COCCOc1cc2nccc(Oc3ccc(NC(=O)Nc4ccccc4OC)c(C)c3C)c2cc1OC`: 6.5 nM. The figure for `COc1ccc(NC(=O)Nc2cc(C)c(Oc3ccnc4cc(OC)c(OC)cc34)cc2C)cc1` is 4.3 nM; for `COc1ccccc1NC(=O)Nc1ccc(Oc2ccnc3cc(OC)c(OC)cc23)cc1Cl` it is 0.6 nM; for `CCNC(=O)Nc1ccc(Oc2ncnc3cc(OC)c(OC)cc23)cc1` it is 70 nM. `COc1cc2ncnc(Oc3ccc(NC(=O)NCc4ccccn4)cc3)c2cc1OC` returned an IC50 of 750 nM. Against the preceding compound, the IC50 is about 11-fold higher. The same measure for `COc1cc2ncnc(Oc3ccc(NC(=O)Nc4ccc(F)cc4)c(Cl)c3)c2cc1OC`: 0.7 nM; for `CCCNC(=O)Nc1ccc(Oc2ncnc3cc(OC)c(OC)cc23)cc1Cl`: 16 nM.

The values are drawn from the Kinase Knowledgebase extract (Sharma et al. 2016).
